Reference: patent US4777167A, “Pharmaceutically useful substituted thiacycloalkeno [3,2-b]pyridines, compositions and method of use” (Ortho Pharmaceutical Corporation, priority 1987, dated 1988)

Key:
Aorta Muscle = test: Inhibition of aorta muscle contraction; assay type: cell-based; settings: Table II; concentration 0.1 μM
calcium channels = target: T1, calcium channels (Oryctolagus cuniculus, UniProt P15381); test: Inhibition of nitrendipine binding (3H-nitrendipine displacement, rabbit heart membranes); design: species or system rabbit (New Zealand white); settings: Table II, 90 min, 4° C.
T1 construct: from tissue; host or cells: heart of female New Zealand white rabbits, membrane fraction (42,000×g pellet)
Method: (1) Inhibition of nitrendipine binding to calcium channels.
The assay for inhibition of nitrendipine binding follows the following procedure:
Female, New Zealand white rabbits (1-2 kg) are sacrificed by cervical dislocation, and the heart is immediately removed, cleaned, and chopped into small pieces. The tissue is homogenized in 5× volume of 0.05M Hepes buffer, pH 7.4. The homogenate is centrifuged at 4000×g for 10 minutes; the supernatant is recentrifuged at 42,000×g for 90 minutes. The resulting membrane pellet is resuspended (0.7 ml/g weight) in 0.05M Hepes, pH 7.4 and stored at -70° C. until used. Each tube of the binding assay contains ^3 H- nitrendipine (0.05-0.50 nM), buffer, membranes (0.10 ml), and test compound in a total volume of 1.0 ml. After 90 minutes at 4° C., the bound nitrendipine is separated from the unbound by filtration on Whatman GF/C fibers. After rinsing, the filters are dried and counted in a liquid scintillation counter.
Non-specific binding of ^3 H-nitrendipine (that amount bound in the presence of excess unlabelled nitrendipine) is subtracted from the total bound to obtain specifically bound radiolabeled nitrendipine. The amount of specifically bound nitrendipine in the presence of a test compound is compared to that amount bound in the absence of a compound. A percent displacement (or inhibition) can then be obtained.

trachealis muscle = test: Inhibition of calcium dependent smooth muscle contraction (KCl-challenged trachea); assay type: cell-based, dog; settings: Canis lupus familiaris; Table II; concentration 0.1 μM; read-out: Inhibition Trachea Muscle Contraction % Inhibition
Method: The test for inhibition of calcium dependent smooth muscle contraction is determined according to the following procedure:
Trachea from dogs sacrificed by excess KCl injection are stored overnight at 4° C. in oxygenated Krebs-Henseleit buffer. Tracheal rings, one cartilage segment wide (5-10 mm), are cut starting from the bronchial end. After cutting the cartilage, the trachealis muscle tissue is suspended in oxygenated Krebs-Henseleit buffer at 37° C. in a 25 ml tissue bath. After a 60 minutes equilibration period, the tissues are challenged with 10 μM carbachol. After 5 minutes the tissues are rinsed and allowed to rest 50 minutes. The tissues are then challenged with 50 mM KCl and, after 30 minutes, the contractions are quantitated. The tissues are then rinsed and reequilibrated for 50 minutes. Test compounds are then added for 10 minutes, and the tissue is rechallenged with 50 mMKcl. After 30 minutes, the contraction is recorded and used to determine the % inhibition of control.
The percent inhibition of smooth muscle contraction is calculated from response data before and after drug treatment. [formula] A rating is assigned to the compound depending upon the percent inhibition obtained.

T1 sequence (P15381 whole entry, other chains not shown): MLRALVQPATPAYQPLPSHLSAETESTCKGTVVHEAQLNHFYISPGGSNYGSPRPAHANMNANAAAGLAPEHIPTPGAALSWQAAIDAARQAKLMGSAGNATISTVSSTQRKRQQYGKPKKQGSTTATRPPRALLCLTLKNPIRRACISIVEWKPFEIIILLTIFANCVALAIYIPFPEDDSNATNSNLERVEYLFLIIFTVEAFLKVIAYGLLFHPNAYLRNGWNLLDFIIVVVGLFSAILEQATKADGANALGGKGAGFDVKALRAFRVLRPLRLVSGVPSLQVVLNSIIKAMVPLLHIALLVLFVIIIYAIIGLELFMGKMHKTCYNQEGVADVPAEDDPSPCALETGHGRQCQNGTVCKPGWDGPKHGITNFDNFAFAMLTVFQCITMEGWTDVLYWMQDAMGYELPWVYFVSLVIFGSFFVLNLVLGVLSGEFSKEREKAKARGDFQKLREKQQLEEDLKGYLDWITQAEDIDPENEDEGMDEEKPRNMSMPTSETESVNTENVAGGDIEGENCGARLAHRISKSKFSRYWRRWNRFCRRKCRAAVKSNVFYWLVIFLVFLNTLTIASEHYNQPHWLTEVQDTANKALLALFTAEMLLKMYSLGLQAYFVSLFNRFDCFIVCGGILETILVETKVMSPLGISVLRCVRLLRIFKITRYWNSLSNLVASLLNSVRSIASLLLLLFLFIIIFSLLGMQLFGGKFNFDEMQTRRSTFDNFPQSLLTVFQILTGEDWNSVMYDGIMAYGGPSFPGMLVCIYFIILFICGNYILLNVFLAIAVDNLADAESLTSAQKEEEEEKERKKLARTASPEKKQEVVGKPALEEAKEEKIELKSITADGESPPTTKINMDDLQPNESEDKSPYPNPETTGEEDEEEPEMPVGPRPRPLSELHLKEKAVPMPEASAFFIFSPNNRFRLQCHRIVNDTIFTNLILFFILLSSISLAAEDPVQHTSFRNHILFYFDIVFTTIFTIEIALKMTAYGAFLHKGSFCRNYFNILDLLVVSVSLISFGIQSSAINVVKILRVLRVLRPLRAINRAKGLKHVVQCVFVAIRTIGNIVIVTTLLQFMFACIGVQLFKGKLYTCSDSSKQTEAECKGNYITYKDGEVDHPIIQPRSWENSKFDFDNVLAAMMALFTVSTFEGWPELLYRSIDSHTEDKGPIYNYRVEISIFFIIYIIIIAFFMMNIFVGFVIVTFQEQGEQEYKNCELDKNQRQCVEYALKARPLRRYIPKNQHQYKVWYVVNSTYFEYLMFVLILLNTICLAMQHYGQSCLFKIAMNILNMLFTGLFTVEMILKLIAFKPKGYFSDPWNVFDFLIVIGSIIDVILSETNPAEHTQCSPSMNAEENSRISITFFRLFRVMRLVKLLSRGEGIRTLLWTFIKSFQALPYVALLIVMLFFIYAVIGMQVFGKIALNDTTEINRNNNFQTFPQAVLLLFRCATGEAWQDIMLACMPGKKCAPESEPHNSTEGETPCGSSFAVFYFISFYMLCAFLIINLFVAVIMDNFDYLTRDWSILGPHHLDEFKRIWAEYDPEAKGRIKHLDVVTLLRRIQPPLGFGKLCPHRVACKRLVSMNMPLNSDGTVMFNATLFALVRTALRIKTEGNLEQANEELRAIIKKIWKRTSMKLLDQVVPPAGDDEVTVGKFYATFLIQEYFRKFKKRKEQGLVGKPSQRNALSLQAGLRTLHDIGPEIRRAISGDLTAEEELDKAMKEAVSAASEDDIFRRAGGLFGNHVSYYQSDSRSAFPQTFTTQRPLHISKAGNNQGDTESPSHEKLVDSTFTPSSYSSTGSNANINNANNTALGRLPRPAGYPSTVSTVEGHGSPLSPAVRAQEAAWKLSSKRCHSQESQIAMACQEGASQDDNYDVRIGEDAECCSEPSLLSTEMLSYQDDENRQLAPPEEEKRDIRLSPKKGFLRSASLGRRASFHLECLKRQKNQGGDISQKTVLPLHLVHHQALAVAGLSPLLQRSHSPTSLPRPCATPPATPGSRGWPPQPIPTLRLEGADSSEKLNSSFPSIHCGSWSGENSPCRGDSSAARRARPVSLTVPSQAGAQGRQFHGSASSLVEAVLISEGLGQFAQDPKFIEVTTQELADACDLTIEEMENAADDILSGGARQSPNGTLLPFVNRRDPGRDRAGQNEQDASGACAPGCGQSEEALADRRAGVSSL
T1 sequence (P13806 27-960 partner limits assumed, other chains not shown): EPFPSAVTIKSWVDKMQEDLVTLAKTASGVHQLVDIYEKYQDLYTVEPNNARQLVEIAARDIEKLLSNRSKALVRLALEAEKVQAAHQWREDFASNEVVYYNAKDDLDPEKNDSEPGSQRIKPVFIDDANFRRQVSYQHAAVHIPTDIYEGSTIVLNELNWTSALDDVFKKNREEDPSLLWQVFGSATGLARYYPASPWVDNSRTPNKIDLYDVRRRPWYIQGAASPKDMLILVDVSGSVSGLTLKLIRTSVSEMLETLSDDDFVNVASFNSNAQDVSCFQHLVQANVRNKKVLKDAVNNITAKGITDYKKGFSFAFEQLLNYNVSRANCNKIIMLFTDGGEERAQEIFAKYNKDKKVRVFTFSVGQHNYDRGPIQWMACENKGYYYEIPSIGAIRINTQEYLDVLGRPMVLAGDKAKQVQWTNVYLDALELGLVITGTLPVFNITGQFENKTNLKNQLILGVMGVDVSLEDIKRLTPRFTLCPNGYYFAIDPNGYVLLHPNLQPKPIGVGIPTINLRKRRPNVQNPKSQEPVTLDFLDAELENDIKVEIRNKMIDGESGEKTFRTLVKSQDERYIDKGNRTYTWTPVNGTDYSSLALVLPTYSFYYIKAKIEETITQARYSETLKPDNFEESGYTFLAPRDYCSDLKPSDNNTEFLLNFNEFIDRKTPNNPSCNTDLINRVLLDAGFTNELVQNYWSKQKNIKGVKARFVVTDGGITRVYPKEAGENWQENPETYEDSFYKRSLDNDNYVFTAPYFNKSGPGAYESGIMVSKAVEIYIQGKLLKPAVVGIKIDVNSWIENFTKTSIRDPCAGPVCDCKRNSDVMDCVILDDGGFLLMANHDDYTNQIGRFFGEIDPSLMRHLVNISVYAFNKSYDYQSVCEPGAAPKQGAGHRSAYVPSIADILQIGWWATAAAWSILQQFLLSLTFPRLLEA
T1 sequence (P13806 961-1106 partner limits assumed, other chains not shown): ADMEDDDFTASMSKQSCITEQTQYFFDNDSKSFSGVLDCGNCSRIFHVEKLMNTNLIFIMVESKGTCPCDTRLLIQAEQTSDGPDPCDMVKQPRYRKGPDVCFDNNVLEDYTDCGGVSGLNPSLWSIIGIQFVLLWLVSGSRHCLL

Row | IC50 (calcium channels) [nM] | SMILES | inhibition at 0.1 µM (Aorta Muscle) [%] | inhibition at 0.1 µM (trachealis muscle) [%]
1 | 45 | CC1=C(C(=O)OCCN(C)Cc2ccccc2)C(c2cccc([N+](=O)[O-])c2)C2=C(CCCCCS2(=O)=O)N1 (stereo not drawn) [5 3-NO2C6 H4, N-Benzyl-N-methylaminoethyl 3,4,5,6,7,10-hexahydro-8-methyl-10-(3-nitrophenyl)-1,1-dioxo-2H-thiacycloocteno[3,2-b]pyridine-9-carboxylate] | 67 | 43
2 | 75 | CC1=C(C(=O)OCCN(C)Cc2ccccc2)C(c2cccc(Cl)c2Cl)C2=C(CCCCCS2(=O)=O)N1 (stereo not drawn) [5 2,3-Cl2C6 H3] | 58 | 26
